Results from patent publication US20260124226A1 (priority 2023, published 2026).
“And” between values parts separate entries of the source, which are not always exact repeats. Identical values can stand only once. Like-named read-outs stand apart in the source and are kept apart here.

Key:
[1] = system: Severe fever thrombocytopenia syndrome virus; assay: organism not typed; assay type: cell-based; details: Vero
in vitro [2] = details: African green monkey
ZIKV = assay: microbe, parasite or virus in culture; assay type: cell-based, Zika virus; details: for EC50: Vero 76 cells
La Crosse virus = assay: microbe, parasite or virus in culture; assay type: cell-based
Junin virus = assay: microbe, parasite or virus in culture; assay type: cell-based
Flu A H5N1 (High Path) = assay type: cell-based, influenza A virus
Punta Toro virus = assay: microbe, parasite or virus in culture; assay type: cell-based
Parainfluenza virus 3 = assay: organism not typed; assay type: cell-based
in vitro [3] = details: human
Plasma stability [4] = assay: Plasma stability
WEEV = assay: microbe, parasite or virus in culture; assay type: cell-based, Western equine encephalitis virus
Marpol virus = assay: organism not typed; assay type: cell-based
MERS = assay: microbe, parasite or virus in culture; assay type: cell-based, MERS coronavirus; details: Middle East respiratory syndrome-related coronavirus
in vitro [5] = details: human; remark: listed apart in the source
DENV2 = assay: microbe, parasite or virus in culture; assay type: cell-based, Dengue virus 2; details: Dengue virus
Flu A H7N9 (High Path) = assay: microbe, parasite or virus in culture; assay type: cell-based, influenza A virus
Plasma stability [6] = assay: Plasma stability; remark: listed apart in the source
HRV-14 = assay: microbe, parasite or virus in culture; assay type: cell-based, human rhinovirus; details: Rhinovirus B, HRV14
Usutu virus = assay: microbe, parasite or virus in culture; assay type: cell-based; details: Vero 76
CHIKV = assay: microbe, parasite or virus in culture; assay type: cell-based, Chikungunya virus
Flu B = assay: microbe, parasite or virus in culture; assay type: cell-based, influenza B virus
EEEV = assay: microbe, parasite or virus in culture; assay type: cell-based, Eastern equine encephalitis virus; details: Eastern equine encephalitis virus
[7] = Liver microsome stability; details: male, Sprague-Dawley, rat, microsomes, pH 7.4
Tacaribe virus = assay: microbe, parasite or virus in culture; assay type: cell-based
Flu A H3N2 = assay: microbe, parasite or virus in culture; assay type: cell-based, influenza A virus
[8] = system: Lymphocytic choriomeningitis virus; assay: microbe, parasite or virus in culture; assay type: cell-based; details: Mammarenavirus choriomeningitidis, Vero
[9] = Liver microsome stability; details: both, human, microsomes, pH 7.4
Heartland virus = assay: microbe, parasite or virus in culture; assay type: cell-based; details: Vero
Enterovirus-68 = assay: microbe, parasite or virus in culture; assay type: cell-based, EV-D68
Pichinde virus = assay: microbe, parasite or virus in culture; assay type: cell-based; details: Vero
POWV = assay: microbe, parasite or virus in culture; assay type: cell-based, Powassan virus
in vitro [10] = details: Syrian golden hamster
RVFV = assay: microbe, parasite or virus in culture; assay type: cell-based, Rift Valley fever virus
Poliovirus = assay: microbe, parasite or virus in culture; assay type: cell-based
EBOV = assay: microbe, parasite or virus in culture; assay type: cell-based, Ebola virus; details: Zaire ebolavirus, Vero
in vitro [11] = details: dog
Plasma stability [12] = assay: Plasma stability; remark: listed apart in the source
Influenza A H1N1 = assay: microbe, parasite or virus in culture; assay type: cell-based, influenza A virus
Flu A H5N1 (Low Path) = assay: microbe, parasite or virus in culture; assay type: cell-based, influenza A virus
in vitro [13] = details: African green monkey; remark: listed apart in the source
VEEV = assay: microbe, parasite or virus in culture; assay type: cell-based, Venezuelan equine encephalitis virus
[14] = Liver microsome stability; details: CD-1, mouse, microsomes
Vero cells = details: African green monkey
[15] = both, human
[16] = CD-1, mouse
[17] = both, human, pH 7.4
[18] = male, Sprague-Dawley, rat
[19] = male, CD-1, mouse
[20] = male, Sprague-Dawley, rat, pH 7.4
[21] = mouse, in vivo, po, 15 mg/kg
ENTV71 = assay: microbe, parasite or virus in culture; assay type: cell-based, EV-A71; details: Enterovirus A, Vero 76
physchem [22] = details: simulated gi fluid, pH 5.2
SARS-CoV-2 = assay: microbe, parasite or virus in culture; assay type: cell-based; details: Severe acute respiratory syndrome coronavirus 2, Vero C1008
RSV = assay: microbe, parasite or virus in culture; assay type: cell-based; details: human respiratory syncytial virus, MA104
YFV = assay: microbe, parasite or virus in culture; assay type: cell-based; details: Yellow fever virus, Huh-7
[23] = female, ICR (CD-1), mouse, in vivo, po
physchem [24] = details: simulated gi fluid, pH 1.3
in vitro [25] = details: human; remark: listed apart in the source
MEV = assay: microbe, parasite or virus in culture; assay type: cell-based; details: Measles morbillivirus, Vero 76
WNV = assay: microbe, parasite or virus in culture; assay type: cell-based; details: West Nile virus, Vero 76
[26] = Western equine encephalitis virus, Vero 76
[27] = Mammarenavirus tacaribeense, Vero
[28] = Rift Valley fever virus, Huh-7, RVFV strain MP-12, Huh7 cells

For `O=c1ccn([C@@H]2O[C@](F)(COP3(=O)OCc4ccccc4O3)[C@@H](O)[C@H]2O)c(=O)[nH]1` (stereo partly drawn) [EIDD-2838], the EC90 [1] was 7.82 µM, the CC50 (in vitro [2]) was > 230 µM and the EC50 (ZIKV; ZIKV) was 7.82 µM and 9.2 µM. It also gave an EC90 (ZIKV; Zika virus, Vero 76) of 43.7 µM, an EC50 (ZIKV; Zika virus, Vero 76, ZIKV) of 8.28 µM and an EC50 (La Crosse virus) of 0.69 µM. For the same compound, the EC90 (La Crosse virus; La Crosse virus, Vero 76) was 0.12 µM, the EC50 (Junin virus) was 0.37 µM and the EC90 (Junin virus; Mammarenavirus juninense, Vero) was 0.023 µM. The EC50 (Flu A H5N1 (High Path)) was 11.3 µM, the EC50 (Punta Toro virus) was 5.75 µM and the EC50 (Punta Toro virus; Punta Toro virus, Vero 76) was 6.21 µM. The EC50 (Parainfluenza virus 3) was 78.2 µM, the EC50 (Parainfluenza virus 3; MA104) was 73.6 µM and the CC50 (in vitro [3]) was > 230 µM. For the same compound, the half-life at 1 μM (Plasma stability [4]; male, CD-1, mouse, plasma) was 1 min, the EC50 (WEEV) was 5.75 µM and 5.98 µM and the EC50 (WEEV; [26]) was 7.82 µM. The EC90 (WEEV; [26]) was 24.2 µM, the EC50 (Marpol virus) was 19.1 µM and the EC50 (Marpol virus; Vero) was 25.3 µM. For the same compound, the EC50 (MERS; Vero 76) was 1.98 µM, the EC50 (MERS; Vero C1008) was 2.53 µM and the CC50 (in vitro [5]) was > 230 µM. The EC50 (DENV2; DENV2, Vero 76) was > 230 µM, the EC90 (DENV2; DENV2, Vero 76) was 29.9 µM and the EC50 (Flu A H7N9 (High Path)) was 4.37 µM. The EC50 (Flu A H7N9 (High Path); Influenza A virus, H7N9, MDCK) was 5.29 µM, the half-life at 1 μM (Plasma stability [6]; male, Sprague-Dawley, rat, plasma) was < 1 min and the EC50 (HRV-14) was > 230 µM. For the same compound, the EC50 (Usutu virus) was 6.9 µM, the EC90 (Usutu virus) was 25.8 µM and the EC50 (CHIKV; CHIKV, Vero76 cells) was 3.68 µM and 3.91 µM. For the same compound, the EC90 (CHIKV; Chikungunya virus, Vero 76) was 23.9 µM, the EC50 (CHIKV; Chikungunya virus, Vero 76, CHIKV, Vero76 cells) was 2.3 µM and the EC50 (Flu B) was 0.74 µM and 0.67 µM. For the same compound, the EC50 (Flu B; Influenza B virus, MDCK) was 0.78 µM, the EC90 (EEEV; Vero 76) was 28.4 µM and the half-life at 1 μM [7] was 8 min. For the same compound, the EC50 (Tacaribe virus) was 0.046 µM, the EC90 (Tacaribe virus; [27]) was 0.046 µM and the EC50 (Flu A H3N2) was 0.87 µM. It also gave an EC50 (Flu A H3N2; Influenza A virus, H3N2, MDCK) of 0.97 µM, an EC90 [8] of 4.6 µM and a half-life at 1 μM [9] of 7 min. For the same compound, the EC90 (Heartland virus) was 8.05 µM, the EC50 (Enterovirus-68; Enterovirus D, RD, Enterovirus-68, RD cells) was 7.36 µM and the EC50 (Enterovirus-68; Enterovirus-68, RD cells) was 7.82 µM. The EC90 (Pichinde virus) was 0.55 µM, the EC50 (POWV) was 98.9 µM and the EC50 (POWV; Powassan virus, BHK) was 75.9 µM. For the same compound, the CC50 (in vitro [10]) was > 230 µM, the EC50 (RVFV) was 3.68 µM and 4.14 µM and the EC50 (Poliovirus) was 8.74 µM. The EC50 (Poliovirus; Enterovirus C, Vero 76) was 7.36 µM, the EC50 (EBOV) was 150 µM and the CC50 (in vitro [11]) was > 230 µM. For the same compound, the half-life at 1 μM (Plasma stability [12]; both, human, plasma) was 12 min, the EC50 (Influenza A H1N1) was 1.2 µM and 1.59 µM and 1.98 µM and the EC50 (Influenza A H1N1; Influenza A virus, H1N1, MDCK) was 2.3 µM. The EC50 (Flu A H5N1 (Low Path)) was 0.71 µM, the EC50 (Flu A H5N1 (Low Path); Influenza A virus, H5N1, MDCK) was 0.78 µM and the CC50 (in vitro [13]) was > 230 µM. For the same compound, the EC50 (VEEV) was 8.51 µM, the EC50 (VEEV; Venezuelan equine encephalitis virus, Vero 76) was 8.28 µM and the half-life at 1 μM [14] was 7 min. The CC50 (Vero cells) was 213 µM.
In the case of `CC(C)[C@H](N)C(=O)OC[C@@]1(F)O[C@@H](n2ccc(=O)[nH]c2=O)[C@H](O)[C@@H]1O` [EIDD-2971, [(1S)-1-[[(2S,3S,4R,5R)-5-(2,4-dioxopyrimidin-1-yl)-2-fluoro-3,4-dihydroxy-tetrahydrofuran-2-yl]methoxycarbonyl]-2-methyl-propyl]ammonium chloride], the “max [2749]” value [15] is reported as 0.0152 µM, the “max [2749]” value [16] is reported as 0.305 µM and the half-life ([16]; microsomes) is reported as 11 min. For the same compound, the half-life (Plasma stability [4]; mouse plasma, drug 1.00 μM) was 59 min, the half-life ([17]; microsomes) was 38 min and the “max [2749]” value [17] was 0.179 µM. For the same compound, the “max [2749]” value [18] was 0.155 µM, the half-life (Plasma stability [6]; rat plasma, drug 1.00 μM) was 50 min and the “max [2749]” value [19] was 0.267 µM. For the same compound, the half-life ([20]; microsomes) was 33 min, the “max [2749]” value [20] was 0.203 µM and the half-life (Plasma stability [12]; human plasma, drug 1.00 μM, 37° C.) was 81 min.
With `CC(C)OC(=O)[C@H](C)N[P@](=O)(OC[C@@]1(F)O[C@@H](n2ccc(=O)[nH]c2=O)[C@H](O)[C@@H]1O)Oc1ccccc1` [EIDD-3232, isopropyl ((S)-(((2S,3S,4R,5R)-5-(2,4-dioxo-3,4-dihydropyrimidin-1(2H)-yl)-2-fluoro-3,4-dihydroxytetrahydrofuran-2-yl)methoxy)(phenoxy)phosphoryl)-L-alaninate] the “Tolerability Summary” value [21] was “Class D”, the EC90 (Junin virus; Mammarenavirus juninense, Vero) was 2.2 µM and the EC50 (Junin virus; Mammarenavirus juninense, Vero, Junin virus strain Candid #1, Vero cells) was 2 µM. The EC50 (Parainfluenza virus 3; MA104) was > 32 µM, the CC50 (in vitro [3]) was > 32 µM and the EC50 (MERS; Vero 76) was > 32 µM. For the same compound, the EC50 (ENTV71) was > 32 µM, the CC50 (in vitro [5]) was > 32 µM and the EC50 (DENV2; DENV2, Huh-7) was 4.2 µM. The EC90 (DENV2; DENV2, Huh-7) was 19 µM, the EC50 (HRV-14) was > 32 µM and the half-life (physchem [22]) was > 1440 min. For the same compound, the EC50 (CHIKV; Chikungunya virus, Huh-7) was 5.7 µM, the EC90 (CHIKV; Chikungunya virus, Huh-7) was 4.5 µM and the EC50 (SARS-CoV-2) was > 17 µM. The EC50 (RSV) was > 32 µM, the EC50 (EEEV; Vero 76, EEEV strain FL39-939, Vero 76 cells) was > 32 µM and the EC90 (Tacaribe virus; [27]) was 3.9 µM. The EC50 (Tacaribe virus; Mammarenavirus tacaribeense, Vero, Tacaribe virus strain TRVL 11573, Vero cells) was 2.8 µM, the EC50 (YFV) was 15 µM and the EC50 (Enterovirus-68; Enterovirus D, RD) was 18 µM. For the same compound, the Cmax [23] was 2940 ± 826 nM, the EC50 (POWV; Powassan virus, BHK-21, POWV(Lineage 1) strain LB, BHK-21 cells) was > 32 µM and the CC50 (in vitro [10]) was > 32 µM. It also gave a half-life (physchem [24]) of 288 min, an EC50 (RVFV; [28]) of 6.4 µM and an EC90 (RVFV; [28]) of 7.4 µM. The EC50 (Poliovirus; Enterovirus C, Vero 76, Poliovirus strain Mahoney, Vero 76 cells) was > 32 µM, the CC50 (in vitro [25]) was > 32 µM and the CC50 (in vitro [11]) was > 32 µM. The EC50 (MEV) was 9.6 µM, the EC50 (WNV) was > 32 µM and the EC50 (Influenza A H1N1; Influenza A virus, H1N1, MDCK) was 1.3 µM. The EC90 (Influenza A H1N1; Influenza A virus, H1N1, MDCK) was 1.5 µM and the EC50 (VEEV; Venezuelan equine encephalitis virus, Vero 76, VEEV strain TC-83, Vero 76 cells) was > 32 µM.
